Columns and labels:
[1] = Blood levels after oral immediate release formulations; format: in vivo, human; conditions: for serum levels remained at or above: entire day
Method: Blood levels of 17α-ethynylandrost-5-ene-3β,7β,17β-triol were determined in adult patients dosed with a range of dosages as oral immediate release formulations. The formulations were essentially as described in example 3, with capsules containing 1 mg/capsule, 5 mg/capsule, 10 mg/capsule, 25 mg/capsule or 50 mg/capsule. These unit doses were filled into hard gelatin capsules (size #1 for […] doses; size #2 for the 1 and 5 mg doses) and micronized compound (D90˜[…]) was used.
Two capsules containing 1 mg of 17α-ethynylandrost-5-ene-3β,7β,17β-triol were administered twice per day to patients receiving a 4 mg/day total dose. […] Blood levels of the compound were at or above about 0.5 ng/mL for over 2 hours/day. […] In other patients receiving 4 mg/day for 28 days, there was a lower degree of response than patients receiving higher doses and 4 mg/day was considered to be the minimal effective dose.
Analysis of some of the evaluable patients from example 1 gave the following results. […] Drug exposure over 24 hours (AUC0-24) in patients receiving 10 mg/day (5 mg twice per day) ranged from 15.7 ng·hr/mL to 190 ng·hr/mL and from 72 ng·hr/mL to 198 ng·hr/mL in patients receiving 20 mg/day (10 mg twice per day). Drug exposure in patients receiving 40 mg/day (20 mg twice per day) ranged from 60 ng·hr/mL to 209 ng·hr/mL.

[2] = tested on: pre-diabetic hyperglycemic patients and patients having type 2 diabetes; experiment: Biomarkers in 28-day clinical trial (serum CRP, adipokines; cytokines from LPS stimulated PBMC by ELISA); format: in vivo, human
Method: Groups of pre-diabetic hyperglycemic patients and patients having type 2 diabetes were treated for 28 days with the experimental drug 17α-ethynylandrost-5-ene-3β,7β,17β-triol (oral capsules) or with placebo. Dosages for the pre diabetic patients were 0 mg per day (placebo control; n=10), 5 mg once per day (n=9; cohort 1), 5 mg twice per day (n=8; cohort 2) or 10 mg twice per day (n=7; cohort 3). Placebos were obtained with each treatment cohort based on protocol randomization of 2 treated:1 placebo. The pre-diabetic patients were obese (body mass index ≧29 kg/m^2) and glucose intolerant (fasting plasma glucose <126 mg/dL; 2-hr post prandial glucose 140-200 mg/dL after 75 g oral glucose). The diabetic patients were dosed with 10 mg/day for 28 days (n=6; cohort 6). The glucose clamp protocol was performed on groups of patients dosed with 10 mg/day or 20 mg/day of drug at baseline, one day before drug treatment started (day −1), and one day after the last day of dosing with the drug (day 29). Patients with an M value of <5 mg glucose/kg/min (M<5) were considered insulin resistant and patients with an M value of >5 mg glucose/kg/min (M>5) were considered insulin sensitive or essentially normal for whole body glucose metabolism.
Levels of cytokine biomarkers from patients with M values measured by glucose clamp such as MCP1, TNFα, IL-6 and IL-1β were measured by ELISA as the amount of cytokine secreted from LPS stimulated peripheral blood mononuclear cells from the patients at baseline (day −1) and at 1 day after the last day of drug dosing (day 29). Levels of RBP4 and CRP protein were measured from patient serum.
The analysis of responders used standard analysis. Due to the cohort sizes and the ongoing basis of this clinical protocol, data for surrogates that corresponded to significance at p≦0.10 (trend) were considered positive evidence of surrogacy of the biomarker for the M<5 insulin resistant condition.

[3] = 2 mg twice per day (4 mg/day), n=2
[4] = cohort 2, 3 and 6 M<5 patients vs M>5 patients, p<0.03

Compound: C#C[C@]1(O)CC[C@H]2[C@@H]3[C@@H](O)C=C4C[C@@H](O)CC[C@]4(C)[C@H]3CC[C@@]21C [17α-ethynylandrost-5-ene-3β,7β,17β-triol]
- time with blood levels at or above about 0.5 ng/mL ([1]; 2 mg twice per day): over 2 hours/day
- peak blood levels [1, 3]: 1 to 2 ng/mL
- time of peak blood levels after dosing [1, 3]: 2 to 3 h
- blood levels maintained ([1]; 2 mg twice per day, for over 2 hours/day): ≥ 0.5 ng/mL
- peak serum levels ([1]; 10 mg twice per day (20 mg/day on a single day), n=2): 10 to 30 ng/mL
- serum levels remained at or above ([1]; 10 mg twice per day): ≥ 3 ng/mL
- serum levels remained at or above ([1]; 25 mg twice per day): ≥ 3 ng/mL
- peak serum levels ([1]; 50 mg twice per day (100 mg/day), n=2): 80 to 150 ng/mL
- serum levels remained at or above ([1]; 50 mg twice per day (100 mg/day)): ≥ 10 ng/mL
- induction of cytochromes (liver enzymes) ([1]; 100 mg/day dose level): not observed
- fasted Cmax lower compared to patients dosed after a meal ([1]; fasted vs fed status): up to 60%
- mean Cmax ([1]; females (n=3), 20 mg/day (10 mg twice per day)): 13.8 ng/mL
- Cmax levels in females vs males ([1]; in vivo): sometimes higher
- total drug exposure levels, adult females vs adult males ([1]; in vivo): somewhat higher
- mean Cmax ([1]; males (n=4), 20 mg/day (10 mg twice per day)): 15.1 ng/mL
- mean Cmax ([1]; pre-diabetic hyperglycemic females (n=6), 10 mg per day (5 mg twice per day)): 11.2 ng/mL
- mean Cmax ([1]; pre-diabetic hyperglycemic males (n=2), 10 mg per day (5 mg twice per day)): 3.8 ng/mL
- mean Cmax ([1]; rheumatoid arthritis patients, females (n=6), 40 mg/day (20 mg twice per day)): 27.4 ng/mL
- mean Cmax ([1]; rheumatoid arthritis patients, males (n=2), 40 mg/day (20 mg twice per day)): 43.7 ng/mL
- adiponectin ([2]; M<5 drug treated patients): not affected
- Resistin ([2]; M<5 drug treated subjects): increased much less
- decrease in CRP ([2]; M<5 patients compared to M>5 patients, p=0.094 exact Mann-Whitney): significant
- Leptin ([2]; all drug treated cohorts (decreased in placebo patients)): increased
- IL-1β (LPS stimulated PBMC) [2, 4]: highly significant decrease
- IL-6 (LPS stimulated PBMC) [2, 4]: highly significant decrease
- MCP1 (LPS stimulated PBMC) [2, 4]: highly significant decrease
- TNFα (LPS stimulated PBMC) [2, 4]: highly significant decrease
- Leptin ([2]; cohort 6 (diabetic patients, 10 mg/day), p=0.002): significantly increased
- TNFα (LPS stimulated PBMC) ([2]; day 29, drug treated M<5 vs drug treated M>5 patients, p=0.075): greater decrease
- MCP1 (LPS stimulated PBMC) ([2]; day 29, drug treated M<5 vs drug treated M>5 patients, p=0.093): greater decrease
- Resistin ([2]; drug treated subjects vs placebo control patients): increased less
- CRP ([2]; insulin resistant subjects (M<5) compared to placebo-treated subjects, p=0.018 exact Mann-Whitney): significantly decreased

— US20100227841A1, “Patient populations and treatment methods” (Harbor BioSciencs, Inc., priority 2008, published 2010)
